Reference: US20190345443A1, “METHOD FOR THE CULTURING AND DIFFERENTIATION OF CELLS” (FRAUNHOFER-GESELLSCHAFT ZUR FORDERUNG DER ANGEWANDTEN …, priority 2018, published 2019)

Test system: MDA-MB-231 breast cancer cells
Assay: Overhead culture of MDA-MB-231 breast cancer cells with paclitaxel, relative cell count
Type: cell-based
Conditions: 500 nM paclitaxel, 48 h overhead culture
Description: In the present experiment, MDA-MB-231 breast cancer cells were initially seeded on cell culture substrates according to the present invention, in particular nanoporous glass membranes with average pore diameters of 17 nm, 26 nm, 46 nm, 81 nm, and 124 nm, and on a smooth non-porous glass surface and cultured for 24 h in order to obtain homogeneous cell colonization on all substrates. Subsequently, the samples were inverted and divided into two groups: one control group and one test group, wherein the culturing took place in overhead culture for 48 h. In this context, the control group was cultured in normal culture medium and 500 nM paclitaxel was added to the culture medium of the test group. During culturing for 48 h in overhead culture, a reduction of the relative cell count on the substrates according to the invention by approximately 35-55% in the test group as compared to the control group was observed (FIG. 7).

What does the source list for CC(=O)O[C@H]1C(=O)[C@@]2(C)[C@H]([C@H](OC(=O)c3ccccc3)[C@]3(O)C[C@H](OC(=O)[C@H](O)[C@@H](NC(=O)c4ccccc4)c4ccccc4)C(C)=C1C3(C)C)[C@]1(OC(C)=O)CO[C@@H]1C[C@@H]2O [paclitaxel]?
reduction of the relative cell count in the test group as compared to the control group (on nanoporous glass membranes (17, 26, 46, 81, 124 nm)): 35-55%; reduction of the relative cell count in the test group as compared to the control group (on smooth non-porous glass surface): approximately 5%
